We go through one molecule from patent publication US20090247495A1, “CU[…] AND USES THEREOF” (priority 2007, published 2009).

The subject of one assay is Panc-1. As to the kind of experiment: MTT cell cytotoxicity assay, Panc-1. Format: cell-based. The note with it: Homo sapiens. The method, then: (§1) Three human pancreatic cancer cell lines (Panc-1, Panc 02.13, Panc 10.05) were purchased from American Type Culture Collection (ATCC, Manassas, Va., USA). Panc 02.13 and Panc 10.05 were grown in RPMI 1640 medium supplemented with 15% FBS, 4.5 g/L glucose, 10 mM HEPES, and 1.0 mM sodium pyruvate and 10 Units/ml human insulin; while PANC-1 was grown in Dulbecco's modified Eagle's medium supplemented with 10% FBS. They were maintained in a humidified 5% CO2 atmosphere at 37° C. and the culture medium was changed once in 2 days.
(§2) The cytotoxic effect of CuB on these three cancer cell lines were determined using MTT (3-[4,5-dimethylthiazol-2-yl]-2,5-diphenyl tetrazolium bromide) labeled cell cytotoxicity assay. A total of 1×10^4 cells were seeded into a 96-well plate for 24 hours prior to cucurbitacin B (CuB) treatment. They were then treated with different dosages of CuB for 48 hours. After the treatment, 20 μl of MTT (5 mg/ml) was added to each well and incubated for 4 hrs. Then the medium was discarded and 100 μl of dimethyl sulfoxide was added. The absorbance at 570 nm was then measured by FLUOstar OPTIMA equipment (BMG, LABTECH GmbH, Germany). The percentage of inhibition against different dosages of CuB were plotted using the Prism software and the 50% inhibition concentration (IC50) were obtained. […]
(Tetrazolium dyes change colour on reduction, which living cells bring about.)

The next assay relates to Panc 10.05. In words: MTT cell cytotoxicity assay, Panc 10.05. As to conditions: Homo sapiens, Panc1005, 48 hours. The assay is classed as cell-based. The protocol: as §1, §2
Assay [1] concerns HL60 and U937 cells. As to the kind of experiment: Cell cycle analysis by flow cytometry, myeloid leukemia cells. As to conditions: 96 hours. The assay is classed as cell-based, human. The method, then:
(§3) HL60 and U937 cells were incubated with vary doses of cucurbitacin B for 96 hours at 37° C. For analysis of cell differentiaion, cells were then incubated with either R-phycoerythrin-conjugated murine anti-human CD11b antibody (DAKO, Carpinteria, Calif.). For analysis of cell cycle, cells were washed and fixed with chilled methanol, and incubated on ice for 30 minutes prior to staining with propidium iodide. All analyses were performed by flow cytometry.

In assay [2] the test system is HL60 cells and U937 cells. As to the kind of experiment: Cytocentrifuged, fixed and stained cells (multinucleation). Format: cell-based, human. As to conditions: 1×10^−8 M or 5×10^−8 M, 96 hours. The method, then: HL60 cells, as depicted in FIGS. 13A to 13C, and U937 cells, as depicted in FIGS. 13D to 13F, were cytocentrifuged, fixed and stained. Cells were treated with either 1×10^−8 M (FIGS. 13B, 13C and 13E) or 5×10^−8 M (FIG. 13F) cucurbitacin B for 96 hours, and compared with diluent treated control cells (FIGS. 13A and […]).

Assay [3] has as its system HL60 and U937 cells. As to the kind of experiment: Cell differentiation: CD11b expression by flow cytometry. Format: cell-based, human. The note with it: 96-hour treatment. The method, then:
as §3
Following a 96-hour treatment with cucurbitacin B, HL60 (FIG. 14A) and U937 (FIG. 14B) cells were incubated with RPE-conjugated CD11b-specific antibody (dark grey) or RPE-conjugated IgGI control antibody (light grey), and flow cytometry was performed.
On the technique in general: A flow cytometer gives signals particle by particle.

Assay [4] deals with human MDA-MB-231 breast cancer cells. In words: Orthotopic human breast cancer model in nude mice. Format: in vivo. The method, then: One million human MDA-MB-231 breast cancer cells/Matrigel (vol 1:1) were inoculated isotopically into the breasts of nude mice. The mice received intraperitoneal injections of 1 mg/ml of cucurbitacin B 3 times a week starting on the day after inoculation of the cells. The longitudinal and the transverse diameter, and the height were measured once a week. The volume was calculated by multiplying these elements, and the relative tumor size was determined by dividing the product by the initial volume. After 6 weeks, the mice were sacrificed to weigh the dissected tumors. At that moment, blood was taken for analysis, where organs and tumors were inspected, dissected, fixed and stained with hematoxylin-eosin and/or Ki-67. Data were expressed as mean±SD. Statistical analysis was performed by student's t test.
Six weeks after i.p. treatment with either vehicle or cucurbitacin B 1 mg/kg three times a week, mice were euthanized and tumors were observed and weighed. Results represented the mean and SD of 9 treated and 9 control tumors. Statistical analysis was performed by student's t test.

Assay [5] concerns Human cancer cell lines from the 59-NCI Cancer Cell Line Panel. The assay is classed as cell-based.
In a further assay the test system is Panc-1 and SW cells. In words: Cell cycle analysis by flow cytometry, pancreatic cells. The assay is classed as cell-based, human. As to conditions: different periods. The method, then:
Panc-1 and SW cells were incubated with cucurbitacin B for different periods at 37° C. At specific time points, cells were washed and fixed with chilled 80% ethanol, and incubated on ice for 30 min. prior to staining with propidium iodide. All analyses were performed by flow cytometry.

For `CC(=O)OC(C)(C)/C=C/C(=O)[C@](C)(O)C1[C@H](O)C[C@@]2(C)C3CC=C4C(C[C@H](O)C(=O)C4(C)C)[C@]3(C)C(=O)C[C@]12C` (some centres unmarked) [cucurbitacin B], the GI50 in the assay with Panc-1 (MTT, 48 hours) amounted to 12.4 µM; in the assay on Panc 10.05 it was 5.81 µM. Also, the IC50 in the assay with Panc-1 (read-out: IC50 (dose used for western blot)) was found to be 0.8 µM. The cell cycle effect entry in the assay with HL60 and U937 cells [1] was “significant S-phase cell cycle arrest”; in assay [5] (HL60 (TB), 48 hours), “G2/M arrest and endoreduplication”; in the assay on Panc-1 and SW cells, “arrest at G1 and/or G2 phase”. Further, in assay [2], the “cell morphology (multinucleation)” value is on record as “enlarged, multinucleated cells”. In the assay with HL60 and U937 cells [3], the “expression of cell surface marker CD11b” value is given as “enhanced expression”. Further, in assay [4] (i.p. 1 mg/kg three times a week, six weeks), the “weight of dissected tumors vs vehicle treated mice” value is listed as “weighed significantly less”. For the same molecule, the “growth of MDA-MB-231 tumors compared with control” value in assay [4] (intraperitoneal 1 mg/kg 3 times a week, 6 weeks) worked out at 50.1%. Also, in assay [5], the “cell lines with G2/M arrest” value was 6 out of 18.

Broadly, the GI50 is the concentration that inhibits growth by half. The low end stands for greater sensitivity of the cells, the high end for lower sensitivity of the cells. The term IC50 denotes the concentration that gives 50% inhibition.
